# Assay results reported in US20240109917A1 (ACTELION PHARMACEUTICALS LTD, priority 2020, published 2024).
# pIC50: −log10 of the molar value.
# Molecular target: His6-TEV-PDGFRβ (557-1016) (Homo sapiens (Human), UniProt P09619)
# Experiment: PDGFRβ HTRF Assay
# Type: biochemical
# Details: read-out: PDGFR HTRF IC50
# Procedure, shortened: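 Human PDGFRβ (557-1016) pre-incubated with compound for 30 min at RT in pH 7.5 HEPES/MgCl2/EGTA/Brij-35/DTT buffer. Reaction started with ATP and TK-biotin peptide, run 3 h at RT, then quenched with EDTA-containing Eu-cryptate antibody/streptavidin-XL665. HTRF 665/620 nm ratio read after 60 min; percent inhibition relative to DMSO and 10 μM imatinib controls.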
# Sequence of His6-TEV-PDGFRβ (557-1016) (P09619 557-1016): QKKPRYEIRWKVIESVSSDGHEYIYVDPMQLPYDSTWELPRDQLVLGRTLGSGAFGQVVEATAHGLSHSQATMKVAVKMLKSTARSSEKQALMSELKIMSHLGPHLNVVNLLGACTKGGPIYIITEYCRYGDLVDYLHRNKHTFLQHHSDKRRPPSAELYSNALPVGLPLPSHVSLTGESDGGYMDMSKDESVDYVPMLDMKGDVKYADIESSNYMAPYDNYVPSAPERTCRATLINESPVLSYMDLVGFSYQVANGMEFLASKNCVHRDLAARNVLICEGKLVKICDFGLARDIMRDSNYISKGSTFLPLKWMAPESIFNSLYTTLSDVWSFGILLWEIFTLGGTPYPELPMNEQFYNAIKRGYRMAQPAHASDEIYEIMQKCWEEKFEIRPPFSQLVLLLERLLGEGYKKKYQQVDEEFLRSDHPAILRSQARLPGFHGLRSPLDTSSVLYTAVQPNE
row,SMILES,pIC50
1,"COc1ncccc1-c1cn2ncc(C(=O)Nc3cc(C(=O)NCCN4CCCC4(C)C)cnc3C)c2s1 [Example 226, N-(5-((2-(2,2-Dimethylpyrrolidin-1-yl)ethyl)carbamoyl)-2-methylpyridin-3-yl)-2-(2-methoxypyridin-3-yl)pyrazolo[5,1-b]thiazole-7-carboxamide]",9.70
2,"Cc1ncc(C(=O)NCCN2CCCC2)cc1NC(=O)c1cnn2cc(-c3cn(C)nc3C(F)(F)F)sc12 [Example 227, 2-(1-Methyl-3-(trifluoromethyl)-1H-pyrazol-4-yl)-N-(2-methyl-5-((2-(pyrrolidin-1-yl)ethyl)carbamoyl)pyridin-3-yl)pyrazolo[5,1-b]thiazole-7-carboxamide]",9.05
3,"Cc1ncc(C(=O)NCCN2C[C@H]3CC[C@@H]2C3)cc1NC(=O)c1cnn2cc(-c3cnn(C)c3C)sc12 [Example 208, N-(5-((2-((1R,4S)-2-azabicyclo[2.2.1]heptan-2-yl)ethyl)carbamoyl)-2-methylpyridin-3-yl)-2-(1,5-dimethyl-1H-pyrazol-4-yl)pyrazolo[5,1-b]thiazole-7-carboxamide]",9.52
4,"Cc1ncc(C(=O)NCCN2CCCC23CCC3)cc1NC(=O)c1cnn2cc(-c3c(C)nn(C)c3C)sc12 [Example 214, N-(5-((2-(5-azaspiro[3.4]octan-5-yl)ethyl)carbamoyl)-2-methylpyridin-3-yl)-2-(1,3,5-trimethyl-1H-pyrazol-4-yl)pyrazolo[5,1-b]thiazole-7-carboxamide]",9.52
5,"Cc1cc(C(=O)NCCN2CC[C@H](O)C2)sc1NC(=O)c1cnn2cc(-c3cnn(C)c3)sc12 [Example 195, (S)—N-(5-((2-(3-hydroxypyrrolidin-1-yl)ethyl)carbamoyl)-3-methylthiophen-2-yl)-2-(1-methyl-1H-pyrazol-4-yl)pyrazolo[5,1-b]thiazole-7-carboxamide]",6.81
6,"Cc1ncc(C(=O)NCCN2CCCC2(C)C)cc1NC(=O)c1cnn2cc(-c3cnn(CCC(O)CO)c3)sc12 (centres unmarked) [Example 221, 2-(1-(3,4-Dihydroxybutyl)-1H-pyrazol-4-yl)-N-(5-((2-(2,2-dimethylpyrrolidin-1-yl)ethyl)carbamoyl)-2-methylpyridin-3-yl)pyrazolo[5,1-b]thiazole-7-carboxamide]",9.05
7,"Cc1ncc(C(=O)NCCN2CCCC2(C)C)cc1NC(=O)c1cnn2cc(-c3c(C)n[nH]c3C)sc12 [Example 231, 2-(3,5-Dimethyl-1H-pyrazol-4-yl)-N-(5-((2-(2,2-dimethylpyrrolidin-1-yl)ethyl)carbamoyl)-2-methylpyridin-3-yl)pyrazolo[5,1-b]thiazole-7-carboxamide]",9.40
8,"Cc1cc(C(=O)NCCN2CCCC2(C)C)sc1NC(=O)c1cnn2cc(-c3cncnc3)sc12 [Example 185, N-(5-((2-(2,2-dimethylpyrrolidin-1-yl)ethyl)carbamoyl)-3-methylthiophen-2-yl)-2-(pyrimidin-5-yl)pyrazolo[5,1-b]thiazole-7-carboxamide]",6.15
9,"Cc1ncc(C(=O)NCCN2CC3CCC2CC3)cc1NC(=O)c1cnn2cc(-c3cnn(C(F)F)c3)sc12 [Example 180, N-(5-((2-(2-azabicyclo[2.2.2]octan-2-yl)ethyl)carbamoyl)-2-methylpyridin-3-yl)-2-(1-(difluoromethyl)-1H-pyrazol-4-yl)pyrazolo[5,1-b]thiazole-7-carboxamide]",9.40
10,"Cc1ncc(NC(=O)CN2CCc3cnn(C)c3C2)cc1NC(=O)c1cnn2cc(-c3cnn(C)c3)sc12 [Example 17, 2-(1-methyl-1H-pyrazol-4-yl)-N-(2-methyl-5-(2-(1-methyl-4,5-dihydro-1H-pyrazolo[3,4-c]pyridin-6 (7H)-yl)acetamido)pyridin-3-yl)pyrazolo[5,1-b]thiazole-7-carboxamide]",9.30
11,"Cc1ncc(C(=O)N2CC2CNC(C)(C)C)cc1NC(=O)c1cnn2cc(-c3cccc4c3cnn4C)sc12 (centres unmarked) [Example 239, N-(5-(2-((tert-butylamino)methyl)aziridine-1-carbonyl)-2-methylpyridin-3-yl)-2-(1-methyl-1H-indazol-4-yl)pyrazolo[5,1-b]thiazole-7-carboxamide]",8.30
12,"Cc1cc(C(=O)NCCCN2CCCC2(C)C)sc1NC(=O)c1cnn2cc(-c3cnn(C)c3)sc12 [Example 201, N-(5-((3-(2,2-dimethylpyrrolidin-1-yl)propyl)carbamoyl)-3-methylthiophen-2-yl)-2-(1-methyl-1H-pyrazol-4-yl)pyrazolo[5,1-b]thiazole-7-carboxamide]",7.23
13,"Cc1ncc(C(=O)NCCN2CC3CCC2CC3)cc1NC(=O)c1cnn2cc(-c3cnn(C4CC4)c3)sc12 [Example 181, N-(5-((2-(2-azabicyclo[2.2.2]octan-2-yl)ethyl)carbamoyl)-2-methylpyridin-3-yl)-2-(1-cyclopropyl-1H-pyrazol-4-yl)pyrazolo[5,1-b]thiazole-7-carboxamide]",9.70
14,"Cc1ncc(C(=O)NC2CN(C(C)(C)C)C2)cc1NC(=O)c1cnn2cc(-c3cccc4c3cnn4C)sc12 [Example 238, N-(5-((1-(tert-butyl)azetidin-3-yl)carbamoyl)-2-methylpyridin-3-yl)-2-(1-methyl-1H-indazol-4-yl)pyrazolo[5,1-b]thiazole-7-carboxamide]",9.40
15,"Cc1ncc(C(=O)NCCN2CC3CCC2C3)cc1NC(=O)c1cnn2cc(-c3cn(C)nc3C)sc12 (centres unmarked) [Example 212, N-(5-((2-(2-azabicyclo[2.2.1]heptan-2-yl)ethyl)carbamoyl)-2-methylpyridin-3-yl)-2-(1,3-dimethyl-1H-pyrazol-4-yl)pyrazolo[5,1-b]thiazole-7-carboxamide]",9.52
16,"Cc1ncc(C(=O)NCCN2CCCC2)cc1NC(=O)c1cnn2cc(-c3cnn(C)c3C)sc12 [Example 220, 2-(1,5-Dimethyl-1H-pyrazol-4-yl)-N-(2-methyl-5-((2-(pyrrolidin-1-yl)ethyl)carbamoyl)pyridin-3-yl)pyrazolo[5,1-b]thiazole-7-carboxamide]",9.70
17,"Cc1ncc(NC(=O)CN2CCCC2(C)C)cc1NC(=O)c1cnn2cc(-c3cnn(C)c3)sc12 [Example 13, N-(5-(2-(2,2-dimethylpyrrolidin-1-yl)acetamido)-2-methylpyridin-3-yl)-2-(1-methyl-1H-pyrazol-4-yl)pyrazolo[5,1-b]thiazole-7-carboxamide]",9.30
18,"Cc1cc(C(=O)NCCN(C)C2CCOCC2)sc1NC(=O)c1cnn2cc(-c3cnn(C)c3)sc12 [Example 192, 2-(1-methyl-1H-pyrazol-4-yl)-N-(3-methyl-5-((2-(methyl(tetrahydro-2H-pyran-4-yl)amino)ethyl)carbamoyl)thiophen-2-yl)pyrazolo[5,1-b]thiazole-7-carboxamide]",7.46
19,"Cc1cc(C(=O)NCCN2CCCC2(C)C)sc1NC(=O)c1cnn2cc(-c3cnn(C)n3)sc12 [Example 186, N-(5-((2-(2,2-dimethylpyrrolidin-1-yl)ethyl)carbamoyl)-3-methylthiophen-2-yl)-2-(2-methyl-2H-1,2,3-triazol-4-yl)pyrazolo[5,1-b]thiazole-7-carboxamide]",7.38
20,"Cc1cc(C(=O)NCCN2CCC(C)(C)C2)sc1NC(=O)c1cnn2cc(-c3cnn(C)c3)sc12 [Example 189, N-(5-((2-(3,3-dimethylpyrrolidin-1-yl)ethyl)carbamoyl)-3-methylthiophen-2-yl)-2-(1-methyl-1H-pyrazol-4-yl)pyrazolo[5,1-b]thiazole-7-carboxamide]",8.14
